Assays:
coronary artery = test: Flow rate of the coronary artery in the isolated perfused rat heart (Langendorff); details: for coronary flow: isolated Wistar rat heart
Method: Each of the male Wistar rats weighs about 200-250 grams, and is anesthetized with 25 mg/kg pentobarbital and 16 mg/kg heparin by injecting into the abdominal cavity. After falling asleep, separate the cervical vertebra and immediately take the heart out hanging on the constant pouring pressure circulation instrument (Langendorff, AD Instruments Pty Ltd, ML870B2) and fill a 37[…] pouring solution of 95% of oxygen and 5% of carbon dioxide with the artery (119.7 mM NaCl, 23.8 mM NaHCO3, 5.6 mM glucose, 1.2 mM CaCl2, 1.1 mM MgCl2, 0.3 mM NaH2PO4, and 5.0 mM KCl), which washes the heart and clean out the blood water by pouring in a reverse direction. The rate of the reverse pouring is 10 ml/min, followed by maintaining the pouring pressure of the coronary artery at 80 mmHg. After balancing for thirty minutes, measure the rate of the pouring solution flowing in the heart, and observe the change of the rate the pouring solution flowing in the heart while the testing drug is added.

rats = test: Intravenous glucose tolerance test (IGTT); format: in vivo, rat; details: oral 0.5 mg/ml/kg; 1000 mg/kg glucose intravenous, 30 minutes
[1] = test system: rats with coronary artery ligature-reperfusion; test: Coronary artery ligature / reperfusion model of the living rat (area at risk, infarct size); format: in vivo; details: ischaemia 45 minutes, reperfusion two hours
Method: The grown-up male rats having the weight of 250˜300 grams (Sprague-Dawley strain, purchased BioLASCO Taiwan Co., Ltd.) are anesthetized with 1.25 g/kg urethane by the abdominal cavity injection. After anaesthetization, cut the trachea, connect with the artificial respirator (Harvard Rodent Ventilator Model 983), give 15 ml/kg of the tidal volume, and control the respiratory rate at […], followed by cutting off both sides of the vagus immediately. After the intubation of the right arterial carotis, it is connected to the pressure converter (Statham P23XL transducer) so as to monitor the changes of systemic blood pressure. In addition, the rats' four limbs are connected to the silver electrode, so as to record the changes of the electrocardiogram (ECG). Blood pressures, heartbeats and electrocardiogram curves are recorded and analyzed by the software (MacLab data acquisition system, AD Instrument Pty, Castle Hill, NSW, Australia).
After all previous preparations have been done, open the ribcage by the thoracotomy and cut off the skin layers and muscles to find the rib. Burn the fourth and fifth rib close to 2 mm of the sternum in an electrical knife and stabilize the injury with the retractor followed by rending the pericardial membrane, separating the left atrial appendage gently by the cottons, and clasping the anterior interventricular branch of the left coronary artery immediately between the left atrial appendage and the pulmonary artery by a needle forceps having a silk yarn with a hook. Put loops on both ends of silk yarn to seal the wound by unclamping the retractor. Balance in 15 minutes, and if there exists cardiac arrhythmia or the systolic pressure is lower than 80 mmHg, it will be eliminated.
After the balance, the acute cardiac muscle ischaemia is caused by pushing the loop passed by a silk yarn with a hemostat downwards to be stabilized. Then, unclamp the hemostat and uplift the loop to perform a reperfusion of the coronary artery being ligated by the silk yarn. […] If the same surgical procedure is performed, the rat without administrating the drug and performing an ischaemia and an ischaemia/reperfusion is regarded as the sham group. The rundown of the ischaemia and the ischaemia/reperfusion of the present test is as follows.
Perform an ischaemia for 45 minutes and perform an ischaemia/reperfusion for 2 hours. Administrate by injecting the drug into the abdominal cavity after perform the ischaemia for 15 minutes.
Inject the approximately 2 ml, 1% methylene blue into the ischaemic area via a jugular vein, where the non-ischemic area is dyed as purple and the ischemic area or area at risk is retained as red. Subsequently, the heart is immediately took out and washed by the physiological salt solution to remove the connective tissue of the atrium and the surplus water. Cut the undyed ischemic area and weight the total ventricle to calculate the ischemic area of the ventricle. Area at risk (% of total ventricular)=(Weight of risk area)/(Total ventricular weight)×100%.
Cut the ischemic area into a slice with the thickness of approximately 1 mm. Immerse the slice into a TTC (2,3,5-triphenyltetrazolium chloride, in saline) solution, and heat the resultant solution at the 37[…] incubator for 30 minutes, followed by replacing the solvent with 10% formaldehyde solution to preserve the resulting solution for two weeks. The living cells are able to produce the dehydrogenase, which could reduce TTC to a crimson formazan precipitate, whereas the dead cells are unable to produce dehydrogenase, which decolor the formazan as a gray precipitate. Cut and weight the gray infraction area and calculate the ratio. Infract Size (% of risk area)=(Weight of infraction)/(Weight of risk area)×100%.

Type 1 diabetic rats = test: Blood sugar lowering in streptozotocin-induced type 1 diabetic rats after oral administration; format: in vivo, rat; details: for % decrease in plasma glucose: type 1 diabetic rats, 90 min
Method: (b) Streptozocin-induced type 1 diabetic rats: the male Wistar rats of 8 weeks age undergo a starvation for 72 hours, followed by anaesthetizing the rats by injecting with 30 mg/kg pentobarbital into the abdominal cavity. After the rats fall asleep, 60 mg/kg streptozotocin (STZ) is administrated by an intravenous injection. After a week, phlebotomize and obtain a value of blood sugar by a glucose kit, wherein the glucose kit is further analyzed by Biosystem S.A., Barcelona Spain, BST330. While the value of the blood sugar is greater than 400 mg/dL and the typical three symptoms, eating more, drink more, micturition occur, it is deemed as Type 1 Diabetic rats.
(d) The administration: Dissolve the medicine equivalently in deionized water, and then administrate the mentioned solution into the normal and diabetic rats by an orally perfusion. Keep with the desired concentration of the perfusion amount by taking suitable amount of the medicine solution according to the weight of the different animal.
The rats to be experimented should undergo a starvation for 8-12 hours overnight. Next day, the rats are anesthetized with 30 mg/kg pentobarbital by injecting into the abdominal cavity. After the rats fall asleep, fix the rats on the board with the rubber band. Open the groin, find the veins, bleed 0.1 ml blood from an empty stomach, and then feed the medicine into the body of the rats by taking orally. After 90 minutes, bleed and perform a centrifugation (13,000 rpm, 5 minutes) to separate the serum and the plasma. Take the 10 μl supernatant of the serum and add 1 ml reagent of the glucose kit thereinto by gently mixing. React for 5 minutes at 37 °C, followed by detecting the value of the blood sugar by means of BST330 based on the different absorption level. […] The value of the blood sugar (mg/dL) is calculated by comparing the level of redness with contrasting the standard curve.
(The value of blood sugar at postadministration)−(The value of blood sugar at preadministration)/(The value of blood sugar at preadministration)×100%
The results of the experiments are presented in the average value±the standard error (mean±SE), and the variations therebetween are evaluated according to the Student's t-test, while the variations thereamong are evaluated according to one-way ANOVA and Bonferroni's t-test, wherein P<0.05 is deemed to have apparent differences.

Compound: O=C(/C=C/c1ccc(O)c(O)c1)NCCc1ccccc1 [370G (45)]
- effect on coronary flow rate (in words) (coronary artery; Wistar rats, Tables 15 and 16): capable of increasing the coronary flow rate
- coronary flow (coronary artery; conc. 0 (baseline)): 11.8 ± 1.0 mL/min
- coronary flow (coronary artery; conc. 0.1 (unit printed .[…]M)): 12.4 ± 1.1 mL/min
- coronary flow (coronary artery; conc. 0.3 (unit printed .[…]M)): 13.2 ± 1.4 mL/min
- coronary flow (coronary artery; conc. 1 (unit printed .[…]M)): 15.6 ± 1.2 mL/min
- coronary flow (coronary artery; conc. 3 (unit printed .[…]M)): 17.4 ± 1.3 mL/min
- coronary flow (coronary artery; conc. 10 (unit printed .[…]M)): 19.5 ± 0.7 mL/min
- glucose availability in IGTT versus control (rats): raised
- ratio of the areas at risk in the overall area ([1]; 15 mg/kg): 41.1±1.3%
- ratio of the areas at risk in the overall area ([1]; 10^−6 mg/kg): 39.1±1.9%
- infract size (% of risk area) ([1]; 10^−5 mole/kg (approximately 2.8 mg/kg)): 68.8±2.9%
- infract size (% of risk area) ([1]; 10^−6 mole/kg (approximately 0.28 mg/kg)): 70.9±2.8
- infract size (% of risk area) [1]: 62.8±1.8%
- ratio of the areas at risk in the overall area [1]: 36.7±2.3%
- % decrease in plasma glucose (Type 1 diabetic rats; 0.1 mg/kg oral): 11.8 ± 5.5 %
- % decrease in plasma glucose (Type 1 diabetic rats; 0.5 mg/kg oral): 13.8 ± 4.3 %
- % decrease in plasma glucose (Type 1 diabetic rats; 1.0 mg/kg oral): 11.6 ± 1.7 %
- effect for reducing the blood sugar, compared among rat models (Type 1 diabetic rats; type I diabetic rat): weakest effect

— patent publication US8088818B2, “Catechol-based derivatives for treating or preventing diabetics” (National Taiwan University, priority 2006, dated 2012)
